Source: paper PMC4322620 (Frontiers in Pharmacology, 2015)
Where a SMILES comes first, the peptide text is derived from it. [ ]: non-standard residue; d: D form. pGlu = O=C1CC[C@@H](C(=O)O)N1

Experiments:
[1] = target: neurotensin receptors (HT-29 cells) (Homo sapiens, UniProt P30989); assay type: cell-based
NTS1 (HT-29 cells) = NTS1 (HT-29 cells) (Homo sapiens, UniProt P30989); assay: cell-based
NTS1 (HT-29 cells), sequence (P30989 whole entry, looked up): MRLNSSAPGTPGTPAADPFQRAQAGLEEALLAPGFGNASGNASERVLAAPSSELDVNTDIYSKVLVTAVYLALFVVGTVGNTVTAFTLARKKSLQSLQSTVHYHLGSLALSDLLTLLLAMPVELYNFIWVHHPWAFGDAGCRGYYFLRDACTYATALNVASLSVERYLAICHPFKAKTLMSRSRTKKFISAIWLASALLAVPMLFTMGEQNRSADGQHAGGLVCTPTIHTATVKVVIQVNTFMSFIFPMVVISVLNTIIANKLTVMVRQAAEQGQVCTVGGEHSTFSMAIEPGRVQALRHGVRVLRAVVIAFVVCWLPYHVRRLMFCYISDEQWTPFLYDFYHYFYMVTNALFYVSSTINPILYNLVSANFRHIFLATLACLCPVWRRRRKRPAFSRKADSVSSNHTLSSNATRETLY

neurotensin receptors (HT-29 cells), sequence (P30989 whole entry, looked up): as above

Row | SMILES | DC50 [1] [nM] | DC50/EC50 [1] | EC50 (NTS1 (HT-29 cells)) [nM]
1 | CC[C@H](C)[C@H](NC(=O)[C@H](Cc1ccc(O)cc1)NC(=O)[C@@H]1CCCN1C(=O)[C@H](CCCNC(=N)N)NC(=O)[C@H](CCCNC(=N)N)NC(=O)[C@@H]1CCCN1C(=O)[C@H](CCCCN)NC(=O)[C@H](CC(N)=O)NC(=O)[C@H](CCCCN)NC(=O)[C@H](Cc1ccc(O)cc1)NC(=O)[C@H](CC(C)C)NC(=O)[C@@H]1CCC(=O)N1)C(=O)N[C@@H](CC(C)C)C(=O)O [[K4] NT] | 30.5 ± 6.2 | 22 | 1.4 ± 0.1
2 | CC[C@H](C)[C@H](NC(=O)[C@H](Cc1ccc(O)cc1)NC(=O)[C@@H]1CCCN1C(=O)[C@H](CCCNC(=N)N)NC(=O)[C@H](CCCNC(=N)N)NC(=O)[C@@H]1CCCN1C(=O)[C@H](CCCCN)NC(=O)[C@H](CC(N)=O)NC(=O)[C@H](C)NC(=O)[C@H](Cc1ccc(O)cc1)NC(=O)[C@H](CC(C)C)NC(=O)[C@@H]1CCC(=O)N1)C(=O)N[C@@H](CC(C)C)C(=O)O [[A4] NT] | 11.7 ± 1.4 | 20 | 0.6 ± 0.1
3 | CC[C@H](C)[C@H](NC(=O)[C@H](Cc1ccc(O)cc1)NC(=O)[C@@H]1CCCN1C(=O)[C@H](CCCCN)NC(=O)[C@H](CCCCN)NC(=O)[C@@H]1CCCN1C(=O)[C@H](CCCCN)NC(=O)[C@H](CC(N)=O)NC(=O)[C@H](CCC(=O)O)NC(=O)[C@H](Cc1ccc(O)cc1)NC(=O)[C@H](CC(C)C)NC(=O)[C@@H]1CCC(=O)N1)C(=O)N[C@@H](CC(C)C)C(=O)O [[K8, K9] NT] ([pGlu]LYENKPKKPYIL-OH) | 67 ± 18.1 | 3.3 | 20.2 ± 5.2
4 | CC[C@H](C)[C@H](NC(=O)[C@H](Cc1ccc(O)cc1)NC(=O)[C@@H]1CCCN1C(=O)[C@H](CCCNC(=N)N)NC(=O)[C@H](CCCNC(=N)N)NC(=O)[C@@H]1CCCN1C(=O)[C@H](CCC(=O)O)NC(=O)[C@H](CC(N)=O)NC(=O)[C@H](CCC(=O)O)NC(=O)[C@H](Cc1ccc(O)cc1)NC(=O)[C@H](CC(C)C)NC(=O)[C@@H]1CCC(=O)N1)C(=O)N[C@@H](CC(C)C)C(=O)O [[E6] NT] | 57.5 ± 5.9 | 12 | 4.7 ± 1.4
